The source of these data is ChEMBL document CHEMBL5465560, “Selectivity Literature for EUbOPEN Chemogenomic Library” (2024).

For assay [1], the target named is Ribosomal protein S6 kinase alpha-4 (Homo sapiens) (UniProt O75676). Nature of the assay: Selectivity interaction (KinomeScan (DiscoverX)) EUB0000666a RPS6KA4. The note with it: at 10 µM.
For assay [2], the target named is Platelet-derived growth factor receptor alpha (Homo sapiens, UniProt P16234). Nature of the assay: Selectivity interaction (KinomeScan (DiscoverX)) EUB0000666a PDGFRA. The conditions noted are these: at 10 µM.
Assay [3] addresses T1, Bone morphogenetic protein receptor type-2 (Homo sapiens) (UniProt Q13873).
T1 sequence (whole entry): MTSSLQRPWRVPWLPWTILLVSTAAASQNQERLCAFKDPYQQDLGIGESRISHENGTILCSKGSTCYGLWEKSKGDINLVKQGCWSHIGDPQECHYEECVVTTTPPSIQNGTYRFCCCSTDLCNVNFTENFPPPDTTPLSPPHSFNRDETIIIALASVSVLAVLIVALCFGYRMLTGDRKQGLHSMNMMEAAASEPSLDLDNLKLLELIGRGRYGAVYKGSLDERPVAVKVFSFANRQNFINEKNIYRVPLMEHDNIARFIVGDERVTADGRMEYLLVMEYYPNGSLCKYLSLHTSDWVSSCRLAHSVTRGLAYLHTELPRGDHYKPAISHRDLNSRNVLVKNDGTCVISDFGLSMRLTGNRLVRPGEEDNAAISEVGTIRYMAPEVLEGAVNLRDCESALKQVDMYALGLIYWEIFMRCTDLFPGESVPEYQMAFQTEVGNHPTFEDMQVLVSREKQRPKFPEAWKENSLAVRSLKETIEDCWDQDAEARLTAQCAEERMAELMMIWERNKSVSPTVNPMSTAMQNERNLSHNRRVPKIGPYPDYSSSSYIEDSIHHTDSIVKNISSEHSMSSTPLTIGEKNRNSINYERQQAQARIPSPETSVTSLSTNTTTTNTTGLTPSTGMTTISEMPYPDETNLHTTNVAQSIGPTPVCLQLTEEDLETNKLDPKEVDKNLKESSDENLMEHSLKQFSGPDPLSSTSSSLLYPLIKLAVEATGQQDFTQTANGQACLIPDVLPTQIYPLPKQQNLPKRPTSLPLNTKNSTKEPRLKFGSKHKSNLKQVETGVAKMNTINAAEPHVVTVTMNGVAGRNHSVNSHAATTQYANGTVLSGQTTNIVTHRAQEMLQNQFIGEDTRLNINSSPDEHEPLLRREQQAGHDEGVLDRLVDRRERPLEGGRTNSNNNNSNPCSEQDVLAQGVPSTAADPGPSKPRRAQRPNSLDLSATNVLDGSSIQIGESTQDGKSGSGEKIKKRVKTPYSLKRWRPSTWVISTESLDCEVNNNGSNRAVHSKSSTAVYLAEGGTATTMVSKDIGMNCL
Briefly: Selectivity interaction (KinomeScan (DiscoverX)) EUB0000607a BMPR2. The note with it: at 10 µM.

The target in assay [4] is TGF-beta receptor type-2 (Homo sapiens) (UniProt P37173). The conditions noted are these: at 10 µM.
In assay [5] the target is T2, Dual specificity tyrosine-phosphorylation-regulated kinase 2 (Homo sapiens) (UniProt Q92630).
T2 sequence (whole entry): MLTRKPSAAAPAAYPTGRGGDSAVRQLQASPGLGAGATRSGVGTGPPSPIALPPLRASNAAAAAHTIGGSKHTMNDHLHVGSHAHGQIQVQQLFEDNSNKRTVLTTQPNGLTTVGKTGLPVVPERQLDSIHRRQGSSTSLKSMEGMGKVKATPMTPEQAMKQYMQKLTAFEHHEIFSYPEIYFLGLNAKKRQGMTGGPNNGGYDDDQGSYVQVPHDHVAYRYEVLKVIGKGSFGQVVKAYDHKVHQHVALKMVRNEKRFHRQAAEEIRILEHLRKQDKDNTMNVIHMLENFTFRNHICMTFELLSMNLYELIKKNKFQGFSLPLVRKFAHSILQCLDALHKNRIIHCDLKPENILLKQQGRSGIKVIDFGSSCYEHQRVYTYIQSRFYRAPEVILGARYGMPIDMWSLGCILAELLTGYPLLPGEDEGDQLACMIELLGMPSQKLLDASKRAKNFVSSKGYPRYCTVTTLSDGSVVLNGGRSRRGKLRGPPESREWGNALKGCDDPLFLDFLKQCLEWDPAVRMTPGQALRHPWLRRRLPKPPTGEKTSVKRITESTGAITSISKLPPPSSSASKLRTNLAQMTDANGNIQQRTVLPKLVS
Nature of the assay: Selectivity interaction (Kinase screening (Nanosyn)) EUB0000604a DYRK2.

Assay [6] deals with Phosphatidylinositol 4-kinase beta (Homo sapiens, UniProt Q9UBF8). Nature of the assay: Selectivity interaction (ActivX KiNativ screen (kinase selectivity in THP-1 cell lysates)) EUB0000639a PI4KB. Type of assay: subcellular. The note with it: lysate, at 0.04 µM.
Assay [7] deals with Mitogen-activated protein kinase 1 (Homo sapiens, UniProt P28482). Briefly: Selectivity interaction (ActivX KiNativ screen (kinase selectivity in THP-1 cell lysates)) EUB0000639a MAPK1. In kind it is subcellular. The conditions noted are these: lysate.
Assay [8] deals with T3, Cyclin-dependent kinase 11A (Homo sapiens) (UniProt Q9UQ88).
T3 sequence (whole entry): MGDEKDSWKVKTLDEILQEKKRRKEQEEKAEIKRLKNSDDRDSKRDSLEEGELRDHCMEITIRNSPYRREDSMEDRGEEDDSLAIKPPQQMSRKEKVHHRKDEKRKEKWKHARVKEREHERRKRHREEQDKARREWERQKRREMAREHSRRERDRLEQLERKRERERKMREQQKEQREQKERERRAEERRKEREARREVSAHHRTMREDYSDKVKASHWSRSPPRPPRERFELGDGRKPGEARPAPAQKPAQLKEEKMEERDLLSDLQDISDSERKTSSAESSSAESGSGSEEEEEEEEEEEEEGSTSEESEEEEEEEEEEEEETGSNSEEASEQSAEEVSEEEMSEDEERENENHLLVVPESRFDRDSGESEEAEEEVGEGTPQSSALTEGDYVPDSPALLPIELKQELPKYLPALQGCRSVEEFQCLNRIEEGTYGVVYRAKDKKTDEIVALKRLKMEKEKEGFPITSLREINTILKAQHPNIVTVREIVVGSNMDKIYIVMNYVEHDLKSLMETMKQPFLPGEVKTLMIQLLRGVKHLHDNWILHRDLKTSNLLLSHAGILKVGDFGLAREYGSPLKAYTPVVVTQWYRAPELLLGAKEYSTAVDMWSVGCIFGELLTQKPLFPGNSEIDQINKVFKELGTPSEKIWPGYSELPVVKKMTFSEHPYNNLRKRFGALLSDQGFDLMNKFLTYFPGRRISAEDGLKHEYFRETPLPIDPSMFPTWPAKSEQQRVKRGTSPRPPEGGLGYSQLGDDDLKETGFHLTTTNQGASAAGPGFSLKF
Nature of the assay: Selectivity interaction (KinomeScan (DiscoverX)) EUB0000655a CDK11A. The note with it: at 10 µM.

Assay [9] has as its target Mitogen-activated protein kinase 3 (Homo sapiens, UniProt P27361). Nature of the assay: Selectivity interaction (KinomeScan (DiscoverX)) EUB0000229b MAPK3. The note with it: at 10 µM.

Mitogen-activated protein kinase 1, sequence (P28482 whole entry): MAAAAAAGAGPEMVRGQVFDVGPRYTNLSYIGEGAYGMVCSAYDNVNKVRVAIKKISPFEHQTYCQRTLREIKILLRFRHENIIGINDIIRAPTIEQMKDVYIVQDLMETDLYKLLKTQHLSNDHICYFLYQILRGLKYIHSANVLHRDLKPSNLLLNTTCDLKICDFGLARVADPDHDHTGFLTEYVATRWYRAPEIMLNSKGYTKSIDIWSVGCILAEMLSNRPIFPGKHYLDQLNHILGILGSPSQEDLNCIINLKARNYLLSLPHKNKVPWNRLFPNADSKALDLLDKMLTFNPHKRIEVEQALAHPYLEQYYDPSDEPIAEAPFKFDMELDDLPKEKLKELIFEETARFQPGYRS
Mitogen-activated protein kinase 3, sequence (P27361 whole entry): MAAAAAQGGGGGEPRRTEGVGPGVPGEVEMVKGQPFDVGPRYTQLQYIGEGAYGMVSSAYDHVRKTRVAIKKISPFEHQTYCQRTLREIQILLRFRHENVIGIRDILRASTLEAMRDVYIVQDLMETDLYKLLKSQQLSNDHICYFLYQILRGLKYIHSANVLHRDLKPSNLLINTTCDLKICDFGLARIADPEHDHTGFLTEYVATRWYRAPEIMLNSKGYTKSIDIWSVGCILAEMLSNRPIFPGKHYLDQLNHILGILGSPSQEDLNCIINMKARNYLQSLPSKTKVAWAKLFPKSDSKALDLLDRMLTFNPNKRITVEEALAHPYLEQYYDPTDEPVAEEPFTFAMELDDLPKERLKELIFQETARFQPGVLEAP
Ribosomal protein S6 kinase alpha-4 (Homo sapiens), sequence (O75676 whole entry, looked up): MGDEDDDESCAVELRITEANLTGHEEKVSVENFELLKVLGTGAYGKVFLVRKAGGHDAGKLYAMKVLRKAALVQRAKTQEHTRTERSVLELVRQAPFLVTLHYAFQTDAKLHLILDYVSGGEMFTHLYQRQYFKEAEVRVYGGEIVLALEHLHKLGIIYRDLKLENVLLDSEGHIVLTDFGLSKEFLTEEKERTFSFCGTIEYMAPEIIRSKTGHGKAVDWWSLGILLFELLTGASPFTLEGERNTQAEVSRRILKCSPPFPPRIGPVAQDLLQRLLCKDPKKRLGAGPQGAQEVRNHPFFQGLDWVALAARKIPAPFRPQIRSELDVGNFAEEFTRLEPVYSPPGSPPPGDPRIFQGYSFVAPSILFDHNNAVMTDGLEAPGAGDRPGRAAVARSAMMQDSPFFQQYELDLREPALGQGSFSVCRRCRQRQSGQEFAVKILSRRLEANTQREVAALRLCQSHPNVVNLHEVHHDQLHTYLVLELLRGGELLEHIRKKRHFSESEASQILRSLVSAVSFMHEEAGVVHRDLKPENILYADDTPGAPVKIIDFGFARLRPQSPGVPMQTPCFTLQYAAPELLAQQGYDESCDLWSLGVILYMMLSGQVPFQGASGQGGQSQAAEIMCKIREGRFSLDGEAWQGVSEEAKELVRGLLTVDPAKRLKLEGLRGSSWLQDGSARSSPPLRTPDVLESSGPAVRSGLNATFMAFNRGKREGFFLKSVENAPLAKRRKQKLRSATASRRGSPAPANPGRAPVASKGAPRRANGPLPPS
TGF-beta receptor type-2 (Homo sapiens), sequence (P37173 whole entry): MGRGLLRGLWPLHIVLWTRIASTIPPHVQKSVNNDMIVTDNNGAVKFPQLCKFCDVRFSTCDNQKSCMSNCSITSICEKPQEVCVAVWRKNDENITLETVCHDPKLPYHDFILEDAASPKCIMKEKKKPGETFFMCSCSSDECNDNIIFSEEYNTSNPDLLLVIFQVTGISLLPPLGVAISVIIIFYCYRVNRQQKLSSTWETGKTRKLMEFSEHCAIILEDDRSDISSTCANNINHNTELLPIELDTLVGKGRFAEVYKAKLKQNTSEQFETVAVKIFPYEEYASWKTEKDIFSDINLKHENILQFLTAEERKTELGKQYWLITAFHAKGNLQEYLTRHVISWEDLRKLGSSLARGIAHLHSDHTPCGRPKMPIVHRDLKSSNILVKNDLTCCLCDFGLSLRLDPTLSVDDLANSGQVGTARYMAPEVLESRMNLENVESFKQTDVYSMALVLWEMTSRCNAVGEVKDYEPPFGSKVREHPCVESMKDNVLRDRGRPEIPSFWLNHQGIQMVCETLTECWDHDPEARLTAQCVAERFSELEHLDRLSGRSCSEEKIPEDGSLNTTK
Platelet-derived growth factor receptor alpha, sequence (P16234 whole entry): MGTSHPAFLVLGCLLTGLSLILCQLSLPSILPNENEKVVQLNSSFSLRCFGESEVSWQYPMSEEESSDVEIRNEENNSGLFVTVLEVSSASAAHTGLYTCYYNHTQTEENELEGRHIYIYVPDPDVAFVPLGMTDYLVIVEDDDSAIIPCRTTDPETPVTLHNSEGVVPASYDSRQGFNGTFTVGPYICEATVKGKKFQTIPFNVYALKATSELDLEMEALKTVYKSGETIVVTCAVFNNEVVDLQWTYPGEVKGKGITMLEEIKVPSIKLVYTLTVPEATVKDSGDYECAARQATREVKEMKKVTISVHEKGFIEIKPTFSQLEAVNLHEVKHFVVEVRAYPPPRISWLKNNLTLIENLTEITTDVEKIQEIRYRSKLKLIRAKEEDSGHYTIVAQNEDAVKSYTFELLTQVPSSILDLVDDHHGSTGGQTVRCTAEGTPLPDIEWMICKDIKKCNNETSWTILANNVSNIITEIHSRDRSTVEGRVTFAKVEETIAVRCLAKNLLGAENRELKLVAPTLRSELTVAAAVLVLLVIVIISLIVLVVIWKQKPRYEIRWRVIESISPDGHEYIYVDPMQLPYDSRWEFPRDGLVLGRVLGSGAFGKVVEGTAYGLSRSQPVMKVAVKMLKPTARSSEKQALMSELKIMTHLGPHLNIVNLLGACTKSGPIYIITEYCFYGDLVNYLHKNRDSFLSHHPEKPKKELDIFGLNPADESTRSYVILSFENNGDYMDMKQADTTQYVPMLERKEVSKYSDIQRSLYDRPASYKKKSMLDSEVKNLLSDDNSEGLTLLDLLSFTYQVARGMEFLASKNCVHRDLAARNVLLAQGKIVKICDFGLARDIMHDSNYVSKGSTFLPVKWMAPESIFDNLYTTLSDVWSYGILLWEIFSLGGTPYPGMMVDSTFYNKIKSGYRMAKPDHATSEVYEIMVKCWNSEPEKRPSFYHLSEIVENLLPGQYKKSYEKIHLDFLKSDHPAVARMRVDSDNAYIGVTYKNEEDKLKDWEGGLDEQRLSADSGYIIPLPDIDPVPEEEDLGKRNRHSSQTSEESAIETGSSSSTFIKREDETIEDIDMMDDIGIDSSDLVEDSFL
Phosphatidylinositol 4-kinase beta, sequence (Q9UBF8 2-816 limits assumed): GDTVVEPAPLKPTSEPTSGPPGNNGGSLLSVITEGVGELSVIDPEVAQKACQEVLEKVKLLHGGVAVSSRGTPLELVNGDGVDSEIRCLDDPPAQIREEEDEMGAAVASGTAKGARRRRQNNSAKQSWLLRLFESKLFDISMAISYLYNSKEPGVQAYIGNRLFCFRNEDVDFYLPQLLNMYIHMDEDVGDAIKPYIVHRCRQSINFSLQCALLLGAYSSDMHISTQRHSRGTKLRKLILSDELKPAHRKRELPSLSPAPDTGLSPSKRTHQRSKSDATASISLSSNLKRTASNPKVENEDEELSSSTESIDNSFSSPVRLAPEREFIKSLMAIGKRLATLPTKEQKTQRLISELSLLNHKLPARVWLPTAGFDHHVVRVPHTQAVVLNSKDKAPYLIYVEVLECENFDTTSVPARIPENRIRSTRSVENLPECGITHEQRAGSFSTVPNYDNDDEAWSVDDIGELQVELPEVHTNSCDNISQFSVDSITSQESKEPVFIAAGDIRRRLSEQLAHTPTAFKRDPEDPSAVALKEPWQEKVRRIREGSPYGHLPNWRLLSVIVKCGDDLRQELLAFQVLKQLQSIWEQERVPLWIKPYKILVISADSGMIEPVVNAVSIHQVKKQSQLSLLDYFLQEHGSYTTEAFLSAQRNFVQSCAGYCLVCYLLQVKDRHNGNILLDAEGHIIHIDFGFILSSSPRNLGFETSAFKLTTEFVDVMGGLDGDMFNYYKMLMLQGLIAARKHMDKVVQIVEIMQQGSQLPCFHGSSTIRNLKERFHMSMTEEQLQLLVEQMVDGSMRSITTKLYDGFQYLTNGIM

Take `O=C(NOC[C@H](O)CO)c1ccc(F)c(F)c1Nc1ccc(I)cc1F`: the % of control came out at 100% in [1] and 96% in assay [2].
Consider `CNC(=O)Nc1ccc(-c2nc(N3CC4CCC(C3)O4)c3cnn(C4CCC5(CC4)OCCO5)c3n2)cc1`, for which the % of control in [3] is 83%.
As for `Cc1cc([C@@H](C)Nc2ccccc2C(=O)O)c2nc(N3CCOCC3)cc(=O)n2c1` [AZD-6482], the % of control in assay [4] turned out to be 95%.
`Cc1cnc(Nc2ccc(F)cc2Cl)nc1-c1c[nH]c(C(=O)N[C@H](CO)c2cccc(Cl)c2)c1`: the % of inhibition in assay [5] came out at 3%.
On to `CC[C@@H]1[C@H](F)C(=O)N[C@@H]1COc1nccc2cc(C(N)=O)c(OC)cc12` [ZIMLOVISERTIB], for which the % of inhibition is -0.3% in assay [6]; -8.4% in [7] (at 0.01 µM); -6% in [7] (at 0.04 µM); 0.3% in assay [7] (at 0.2 µM); -16.3% in [7] (at 1 µM); -11.6% in assay [7] (at 5 µM).
Regarding `CN(C)CCOc1ccc(-c2nc(-c3ccncc3)c(-c3ccc4c(c3)CC/C4=N\O)[nH]2)cc1`, in [8], the % of control came out at 98%.
In the case of `COc1cc(N(C)c2ccnc3ccc(C(F)(F)F)cc23)cc(OC)c1OC`, the % binding in assay [9] is 100%.
